Measured values reported in patent US9133158B2, “Bicyclic dihydroisoquinoline-1-one derivatives” (Hoffmann-La Roche Inc., priority 2011, dated 2015).

Tests used:
human CYP11B1 = target: T1, human CYP11B1 (Homo sapiens, UniProt P15538); assay: G-402 cellular enzyme assay, human CYP11B1 (cortisol release, HTRF); assay type: cell-based; conditions: G-402 cells, 1 μM Deoxycortisol
T1 construct: expressed in transfected cells
T1 sequence (P15538 25-503): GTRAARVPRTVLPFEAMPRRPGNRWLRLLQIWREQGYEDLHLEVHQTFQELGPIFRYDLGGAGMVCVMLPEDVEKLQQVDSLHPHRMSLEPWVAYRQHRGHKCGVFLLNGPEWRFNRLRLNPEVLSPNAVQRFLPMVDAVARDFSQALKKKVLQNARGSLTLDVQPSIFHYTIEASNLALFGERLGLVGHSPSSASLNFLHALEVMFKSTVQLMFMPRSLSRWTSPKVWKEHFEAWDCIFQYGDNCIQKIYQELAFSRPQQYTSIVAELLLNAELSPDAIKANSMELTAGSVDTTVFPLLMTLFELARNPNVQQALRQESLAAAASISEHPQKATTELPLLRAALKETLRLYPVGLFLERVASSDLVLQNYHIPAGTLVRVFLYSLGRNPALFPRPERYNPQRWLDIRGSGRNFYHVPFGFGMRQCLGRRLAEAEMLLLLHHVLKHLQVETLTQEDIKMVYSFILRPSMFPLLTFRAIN
Method in brief: (§1)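 Inhibition of steroid release was taken as enzyme inhibition. CYP11B1 assays used 1 μM deoxycortisol with cortisol detection, CYP11B2 assays 1 μM deoxycorticosterone with aldosterone detection, both by HTRF after 16 h in stable G-402 cells; EC50 from least-squares MMF fit.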

human CYP11B2 = target: T2, human CYP11B2 (Homo sapiens, UniProt P19099); assay: G-402 cellular enzyme assay, human CYP11B2 (aldosterone release, HTRF); assay type: cell-based; conditions: G-402 cells, 1 μM Deoxycorticosterone
T2 construct: expressed in transfected cells
T2 sequence (P19099 25-503): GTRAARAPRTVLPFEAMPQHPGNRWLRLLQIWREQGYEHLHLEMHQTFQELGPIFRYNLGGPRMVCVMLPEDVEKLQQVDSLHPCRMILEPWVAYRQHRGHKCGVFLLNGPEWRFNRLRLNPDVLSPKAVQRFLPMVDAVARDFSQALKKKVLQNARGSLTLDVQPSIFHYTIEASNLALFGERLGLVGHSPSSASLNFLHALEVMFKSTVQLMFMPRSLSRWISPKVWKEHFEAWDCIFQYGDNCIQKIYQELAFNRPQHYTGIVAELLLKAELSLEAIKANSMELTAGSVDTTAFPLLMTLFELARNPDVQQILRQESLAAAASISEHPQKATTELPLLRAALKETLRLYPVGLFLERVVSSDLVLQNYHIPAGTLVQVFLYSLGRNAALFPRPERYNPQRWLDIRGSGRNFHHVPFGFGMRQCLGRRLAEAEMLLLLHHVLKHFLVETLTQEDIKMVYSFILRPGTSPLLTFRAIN
Method in brief: as §1

Compound	EC50 (human CYP11B1) [nM]	EC50 (human CYP11B2) [nM]
CCc1nc(C)cn1Cc1cncc(N2CCc3cc(Cl)ccc3C2=O)c1 [Example 143, 6-Chloro-2-[5-(2-ethyl-4-methyl-imidazol-1-ylmethyl)-pyridin-3-yl]-3,4-dihydro-2H-isoquinolin-1-one]	4450	258
CC(C)S(=O)(=O)NCc1cncc(N2CCc3cc(Cl)ccc3C2=O)c1 [Example 145, Propane-2-sulfonic acid [5-(6-chloro-1-oxo-3,4-dihydro-1H-isoquinolin-2-yl)-pyridin-3-ylmethyl]-amide]	1900	1500
O=C1c2ccc(Cl)cc2CCN1c1cncc(CN2CCC[C@H]2CO)c1 [Example 149, 6-Chloro-2-[5-((S)-2-hydroxymethyl-pyrrolidin-1-ylmethyl)-pyridin-3-yl]-3,4-dihydro-2H-isuquinolin-1-one]	1920	126
O=C1c2ccc(Cl)cc2CCN1c1cncc(CN2CCC[C@@H]2CO)c1 [Example 150, 6-Chloro-2-[5-((R)-2-hydroxymethyl-pyrrolidin-1-ylmethyl)-pyridin-3-yl]-3,4-dihydro-2H-isoquinolin-1-one]	5320	227
Cc1cc(C)n(Cc2cncc(N3CCc4cc(Cl)ccc4C3=O)c2)n1 [Example 151, 6-Chloro-2-[5-(3,5-dimethyl-pyrazol-1-ylmethyl)-pyridin-3-yl]-3,4-dihydro-2H-isoquinolin-1-one]	3920	101
CS(=O)(=O)NCc1cncc(N2CCc3cc(Cl)ccc3C2=O)c1 [Example 152, N-[5-(6-Chloro-1-oxo-3,4-dihydro-1H-isoquinolin-2-yl)-pyridin-3-ylmethyl]-methanesulfonamide]	11600	295
CC(=O)NCc1cncc(N2CCc3cc(Cl)ccc3C2=O)c1 [Example 153, N-[5-(6-Chloro-1-oxo-3,4-dihydro-1H-isoquinolin-2-yl)-pyridin-3-ylmethyl]-acetamide]	15000	302
O=C1CCCN1Cc1cncc(N2CCc3cc(Cl)ccc3C2=O)c1 [Example 155, 6-Chloro-2-[5-(2-oxo-pyrrolidin-1-ylmethyl)-pyridin-3-yl]-3,4-dihydro-2H-isoquinolin-1-one]	4090	132
O=C1OCCN1Cc1cncc(N2CCc3cc(Cl)ccc3C2=O)c1 [Example 157, 6-Chloro-2-[5-(2-oxo-oxazolidin-3-ylmethyl)-pyridin-3-yl]-3,4-dihydro-2H-isoquinolin-1-one]	11200	352
O=C1NCCN1Cc1cncc(N2CCc3cc(Cl)ccc3C2=O)c1 [Example 158, 6-Chloro-2-[5-(2-oxo-imidazolidin-1-ylmethyl)-pyridin-3-yl]-3,4-dihydro-2H-isoquinolin-1-one]	6030	182
CN1CCN(Cc2cncc(N3CCc4cc(Cl)ccc4C3=O)c2)C1=O [Example 159, 6-Chloro-2-[5-(3-methyl-2-oxo-imidazolidin-1-ylmethyl)-pyridin-3-yl]-3,4-dihydro-2H-isoquinolin-1-one]	4460	209
O=C1c2ccc(Cl)cc2CCN1c1cncc(Cn2cccn2)c1 [Example 160, 6-Chloro-2-(5-pyrazol-1-ylmethyl-pyridin-3-yl)-3,4-dihydro-2H-isoquinolin-1-one]	418	36.1
CCCc1nccn1Cc1cncc(N2CCc3cc(Cl)ccc3C2=O)c1 [Example 161, 6-Chloro-2-[5-(2-propyl-imidazol-1-ylmethyl)-pyridin-3-yl]-3,4-dihydro-2H-isoquinolin-1-one]	341	101
CCOC(=O)c1nccn1Cc1cncc(N2CCc3cc(Cl)ccc3C2=O)c1 [Example 162, 1-[5-(6-Chloro-1-oxo-3,4-dihydro-1H-isoquinolin-2-yl)-pyridin-3-ylmethyl]-1H-imidazole-2-carboxylic acid ethyl ester]	2000	187
O=C1c2ccc(Cl)cc2CCN1c1cncc(Cn2ccnc2CO)c1 [Example 163, 6-Chloro-2-[5-(2-hydroxymethyl-imidazol-1-ylmethyl)-pyridin-3-yl]-3,4-dihydro-2H-isoquinolin-1-one]	3360	215
O=C1c2ccc(Cl)cc2CCN1c1cncc(CNC2COC2)c1 [Example 164, 6-Chloro-2-[5-(oxetan-3-ylaminomethyl)-pyridin-3-yl]-3,4-dihydro-2H-isoquinolin-1-one]	862	141

Now from value to compound:

EC50 (human CYP11B1) [nM]	EC50 (human CYP11B2) [nM]	Compound
140	23.7	O=C1c2ccc(Cl)cc2CCN1c1cncc(CN2CCCC(O)C2)c1 (stereo not drawn) [Example 144, 6-Chloro-2-[5-(3-hydroxy-piperidin-1-ylmethyl)-pyridin-3-yl]-3,4-dihydro-2H-isoquinolin-1-one]
114	39.8	O=C1c2ccc(Cl)cc2CCN1c1cncc(CN2CCC(O)C2)c1 (stereo not drawn) [Example 146, 6-Chloro-2-[5-(3-hydroxy-pyrrolidin-1-ylmethyl)-pyridin-3-yl]-3,4-dihydro-2H-isoquinolin-1-one]
247	36.7	O=C1c2ccc(Cl)cc2CCN1c1cncc(CN2CC[C@@H](O)C2)c1 [Example 147, 6-Chloro-2-[5-((R)-3-hydroxy-pyrrolidin-1-ylmethyl)-pyridin-3-yl]-3,4-dihydro-2H-isoquinolin-1-one]
139	45.1	O=C1c2ccc(Cl)cc2CCN1c1cncc(CN2CC[C@H](O)C2)c1 [Example 148, 6-Chloro-2-[5-((S)-3-hydroxy-pyrrolidin-1-ylmethyl)-pyridin-3-yl]-3,4-dihydro-2H-isoquinolin-1-one]
193	74.7	O=C1c2ccc(Cl)cc2CCN1c1cncc(CN2CCOCC2)c1 [Example 154, 6-Chloro-2-(5-morpholin-4-ylmethyl-pyridin-3-yl)-3,4-dihydro-2H-isoquinolin-1-one]
337	43.9	O=C1c2ccc(Cl)cc2CCN1c1cncc(CN2CCS(=O)(=O)CC2)c1 [Example 156, 6-Chloro-2-[5-(1,1-dioxo-1λ^6-thiomorpholin-4-ylmethyl)-pyridin-3-yl]-3,4-dihydro-2H-isoquinolin-1-one]
60.4	3.5	O=C1c2ccc(Cl)cc2CCN1c1cncc(CN2CCN(CCO)CC2)c1 [Example 165, 6-Chloro-2-{5-[4-(2-hydroxy-ethyl)-piperazin-1-ylmethyl]-pyridin-3-yl}-3,4-dihydro-2H-isoquinolin-1-one]
96.3	14.1	CC(C)N1CCN(Cc2cncc(N3CCc4cc(Cl)ccc4C3=O)c2)CC1 [Example 166, 6-Chloro-2-[5-(4-isopropyl-piperazin-1-ylmethyl)-pyridin-3-yl]-3,4-dihydro-2H-isoquinolin-1-one]
168	47.9	CN1CCN(Cc2cncc(N3CCc4cc(Cl)ccc4C3=O)c2)CC1 [Example 167, 6-Chloro-2-[5-(4-methyl-piperazin-1-ylmethyl)-pyridin-3-yl]-3,4-dihydro-2H-isuquinolin-1-one]
47.5	3.4	O=C1c2ccc(Cl)cc2CCN1c1cncc(CN2CCC(F)(F)CC2)c1 [Example 168, 6-Chloro-2-[5-(4,4-difluoro-piperidin-1-ylmethyl)-pyridin-3-yl]-3,4-dihydro-2H-isoquinolin-1-one]
38.1	5.2	O=C1c2ccc(Cl)cc2CCN1c1cncc(CN2CCC(F)(F)C2)c1 [Example 169, 6-Chloro-2-[5-(3,3-difluoro-pyrrolidin-1-ylmethyl)-pyridin-3-yl]-3,4-dihydro-2H-isoquinolin-1-one]
14.6	3.5	O=C1c2ccc(Cl)cc2CCN1c1cncc(CN2CCC3(COC3)C2)c1 [Example 170, 6-Chloro-2-[5-(2-oxa-6-aza-spiro[3.4]oct-6-ylmethyl)-pyridin-3-yl]-3,4-dihydro-2H-isoquinolin-1-one]
88.9	17.2	O=C1c2ccc(Cl)cc2CCN1c1cncc(CN2CC3(COC3)C2)c1 [Example 171, 6-Chloro-2-[5-(2-oxa-6-aza-spiro[3.3]hept-6-ylmethyl)-pyridin-3-yl]-3,4-dihydro-2H-isoquinolin-1-one]
144	22.3	O=C1c2ccc(Cl)cc2CCN1c1cncc(CN2CCCC(F)(F)C2)c1 [Example 172, 6-Chloro-2-[5-(3,3-difluoro-piperidin-1-ylmethyl)-pyridin-3-yl]-3,4-dihydro-2H-isoquinolin-1-one]
